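In this assay, cells in 96-well plates receive the compound at five concentrations for 48 hours. Endpoints are linearly interpolated between the surrounding concentrations. TGI denotes the concentration required for complete inhibition of growth.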
Experiments:
Assay in all cases: NCI anticancer screen, dose series, 48 h
786-0 renal = test system: 786-0 renal
A498 renal = test system: A498 renal
A549 NSCLC = test system: A549 NSCLC
ACHN renal = test system: ACHN renal
CAKI-1 renal = test system: CAKI-1 renal
DLD-1 colon = test system: DLD-1 colon
DMS 114 small cell lung = test system: DMS 114 small cell lung
DMS 273 small cell lung = test system: DMS 273 small cell lung
EKVX NSCLC = test system: EKVX NSCLC
HCC-2998 colon = test system: HCC-2998 colon
HCT-116 colon = test system: HCT-116 colon
HCT-15 colon = test system: HCT-15 colon
HL-60(TB) leukemia = test system: HL-60(TB) leukemia
HOP-18 NSCLC = test system: HOP-18 NSCLC
HOP-62 NSCLC = test system: HOP-62 NSCLC
HOP-92 NSCLC = test system: HOP-92 NSCLC
HT29 colon = test system: HT29 colon
IGROV1 ovarian = test system: IGROV1 ovarian
K-562 leukemia = test system: K-562 leukemia
KM12 colon = test system: KM12 colon
KM20L2 colon = test system: KM20L2 colon
LOX IMVI melanoma = test system: LOX IMVI melanoma
LXFL 529 NSCLC = test system: LXFL 529 NSCLC
M14 melanoma = test system: M14 melanoma
M19-MEL melanoma = test system: M19-MEL melanoma
MALME-3M melanoma = test system: MALME-3M melanoma
MOLT-4 leukemia = test system: MOLT-4 leukemia
NCI-H226 lung = test system: NCI-H226 lung
NCI-H23 lung = test system: NCI-H23 lung
NCI-H460 lung = test system: NCI-H460 lung
OVCAR-3 ovarian = test system: OVCAR-3 ovarian
OVCAR-4 ovarian = test system: OVCAR-4 ovarian
OVCAR-5 ovarian = test system: OVCAR-5 ovarian
OVCAR-8 ovarian = test system: OVCAR-8 ovarian
RPMI-8226 leukemia = test system: RPMI-8226 leukemia
RXF 393 renal = test system: RXF 393 renal
RXF-631 renal = test system: RXF-631 renal
SF-268 CNS = test system: SF-268 CNS
SF-295 CNS = test system: SF-295 CNS
SF-539 CNS = test system: SF-539 CNS
SK-MEL-2 melanoma = test system: SK-MEL-2 melanoma
SK-MEL-28 melanoma = test system: SK-MEL-28 melanoma
SK-MEL-5 melanoma = test system: SK-MEL-5 melanoma
SN12C renal = test system: SN12C renal
SNB-19 CNS = test system: SNB-19 CNS
SNB-75 CNS = test system: SNB-75 CNS
SNB-78 CNS = test system: SNB-78 CNS
SW-620 colon = test system: SW-620 colon
TK-10 renal = test system: TK-10 renal
U251 CNS = test system: U251 CNS
UACC-257 melanoma = test system: UACC-257 melanoma
UACC-62 melanoma = test system: UACC-62 melanoma
UO-31 renal = test system: UO-31 renal
CCRF-CEM leukemia = test system: CCRF-CEM leukemia
COLO 205 colon = test system: COLO 205 colon
SK-OV-3 ovarian = test system: SK-OV-3 ovarian
XF 498 CNS = test system: XF 498 CNS

Measured: TGI

Nc1nc(N)c(-c2ccccc2)c(C(=O)Nc2ccc(Cl)c(Cl)c2)n1
not listed: CCRF-CEM leukemia | COLO 205 colon | SK-OV-3 ovarian | XF 498 CNS
> 100 µM: all other assays above

CC(=O)O[C@H]1CCC2[C@@H]3CCC4C(=O)c5oncc5C[C@]4(C)C3CC[C@@]21C (some centres not stated)
not listed: CAKI-1 renal | HCT-116 colon | HOP-18 NSCLC | NCI-H226 lung | RXF-631 renal | SF-539 CNS | SNB-19 CNS | UO-31 renal
> 100 µM: all other assays above
